# Source: patent US9000175B2, “Bicyclic GPR119 modulators” (Lupin Limited, priority 2010, dated 2015)
# Several values for one entry are separate records, joined by “and”; a condition that tells them apart may be missing. Equal entries are not always repeated.
# Target: T1, human GPR119 (Homo sapiens, UniProt Q8TDV5)
# T1 construct: expressed in transfected cells
# T1 sequence (Q8TDV5 1-335): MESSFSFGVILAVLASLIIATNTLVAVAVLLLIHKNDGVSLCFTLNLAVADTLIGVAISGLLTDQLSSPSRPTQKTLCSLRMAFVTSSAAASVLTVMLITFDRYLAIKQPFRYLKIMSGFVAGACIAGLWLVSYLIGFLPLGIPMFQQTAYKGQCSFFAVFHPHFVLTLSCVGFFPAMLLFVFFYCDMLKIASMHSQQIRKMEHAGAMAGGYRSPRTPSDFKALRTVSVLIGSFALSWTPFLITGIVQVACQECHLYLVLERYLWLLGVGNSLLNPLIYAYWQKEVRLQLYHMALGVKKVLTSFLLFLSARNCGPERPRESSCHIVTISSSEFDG
# Test: Cyclic AMP assay in stable cell line
# Type: cell-based
# Conditions: CHO-K1 cells stably transfected with human GPR119; cAMP levels (FRET, cAMP femto kit); 1 h at 37° C; read-out: EC50 Range
# Protocol: Cyclic AMP Assay in Stable Cell Line:
# Chinese Hamster Ovary (CHO-K1) cells were stably transfected with human GPR119 and were maintained in Ham's F-12 complete medium containing 10% heat inactivated FBS (Sigma, UK). The cells were maintained under a selection pressure with 500 μg/ml G418 (GENETICIN). Stable clones were analyzed for functional cAMP response to OEA (oleoylethanolamide).
# To estimate activation of GPR119 and induction of cAMP levels by GPR119 agonists, cells were serum starvation for 18-24 h, trypsinized and seeded in 96 well plates at a, density of 7500 cells/well. The cells were then treated with test compounds diluted in serum free Ham's F12 for 1 h at 37° C. The cAMP levels were measured by using the cAMP femto kit (CisBio) by following the manufacturer's instructions. Following treatment with a test compound, the cells were lysed and cAMP levels were estimated by adding D2-labelled cAMP and europium-cryptate conjugated anti-cAMP antibody. Close proximity of D2 and cryptate results in FRET and the subsequent fluorescence that is measured at 665 and 620 nm. The FRET response is calculated as the ratio of fluorescence at 665 to fluorescence at 620 nm. The unlabelled cAMP produced as a result of GPR119 activation/agonism competes with the D2-cAMP leading to a decrease in the FRET signal. Thus the FRET signal is inversely proportional to the amount of cAMP produced by the treated cells. In a separate set of wells, known concentrations of cAMP were added in order to get a standard linear curve for extrapolation of the cAMP values in the unknown/test samples. Fluorescence was measured on BMG Labtech PHERAstar machine.
# The concentration of compound required to stimulate a half-maximal response (EC50) was determined using the GraphPad Prism software.
# The compounds prepared were tested using the above assay procedure and the results obtained are given below.
row,EC50,SMILES
1,50 to 250 nM,"CC(C)OC(=O)N1CCC(Oc2ccc(-n3ccc4cc(C(=O)N5CCCC5)ccc43)nc2)CC1 [Example-70, Isopropyl 4-((6-(5-(pyrrolidine-1-carbonyl)-1H-indol-1-yl)pyridin-3-yl)oxy)piperidine-1-carboxylate]"
2,< 50 nM,"CCc1cnc(N2CCC(Oc3ccc(-n4ccc5cc(C(=O)N6CCCC6)ccc54)nc3)CC2)nc1 [Example-71, (1-(5-((1-(5-Ethylpyrimidin-2-yl)piperidin-4-yl)oxy)pyridin-2-yl)-1H-indol-5-yl)(pyrrolidin-1-yl)methanone]"
3,250 to 1000 nM and 50 to 250 nM,"CC(C)NC(=O)c1ccc2c(ccn2-c2ccc(OC3CCN(C(=O)OC(C)C)CC3)cn2)c1 [Example-72, Isopropyl 4-((6-(5-(isopropylcarbamoyl)-1H-indol-1-yl)pyridin-3-yl)oxy) piperidine-1-carboxylate]"
4,< 50 nM,"CC(C)OC(=O)N1CCC(Oc2ccc(-n3ccc4cc(C(=O)N(C)C)ccc43)nc2)CC1 [Example-74, Isopropyl 4-((6-(5-(dimethylcarbamoyl)-1H-indol-1-yl)pyridin-3-yl)oxy) piperidine-1-carboxylate]"
5,50 to 250 nM,"CC(C)(C)OC(=O)N1CCC(Oc2ccc(-n3ccc4cc(C(=O)NCCO)ccc43)nc2)CC1 [Example-76, tert-Butyl-4-((6-(5-((2-hydroxyethyl)carbamoyl)-1H-indol-1-yl)-pyridin-3-yl)oxy)piperidine-1-carboxylate]"
6,< 50 nM,"CCc1cnc(N2CCC(Oc3ccc(-n4ccc5cc(C(=O)NCCO)ccc54)nc3)CC2)nc1 [Example-77, 1-(5-((1-(5-Ethylpyrimidin-2-yl)piperidin-4-yl)oxy)pyridin-2-yl)-N-(2-hydroxyethyl)-1H-indole-5-carboxamide]"
7,< 50 nM,"CC(C)c1noc(CN2CCC(Oc3ccc(-n4ccc5cc(S(C)(=O)=O)ccc54)nc3)CC2)n1 [Example-80, 3-Isopropyl-5-((4-((6-(5-(methylsulfonyl)-1H-indol-1-yl)pyridin-3-yl)oxy)piperidin-1-yl)methyl)-1,2,4-oxadiazole]"
8,50 to 250 nM,"CS(=O)(=O)c1ccc2c(ccn2-c2ccc(OC3CCN(Cc4ccc(F)cc4)CC3)cn2)c1 [Example-82, 1-(5-((1-(4-Fluorobenzyl)piperidin-4-yl)oxy)pyridin-2-yl)-5-(methylsulfonyl)-1H-indole]"
9,250 to 1000 nM,CC(C)c1noc(CN2CCC(Oc3ccc(-n4ccc5cc(C(=O)N(C)C)ccc54)nc3)CC2)n1 [Example-84]
10,250 to 1000 nM,"CCc1cnc(N2CCC(Oc3ccc(-n4ccc5cc(C(=O)NCC(F)(F)F)ccc54)nc3)CC2)nc1 [Example-88, 1-(5-((1-(5-Ethylpyrimidin-2-yl)piperidin-4-yl)oxy)pyridin-2-yl)-N-(2,2,2-trifluoroethyl)-1H-indole-5-carboxamide]"
11,< 50 nM,"CC(C)(C)OC(=O)N1CCC(Oc2ccc(-n3ccc4cc(S(C)(=O)=O)cc(F)c43)nc2)CC1 [Example-91, tert-Butyl-4-((6-(7-fluoro-5-(methylsulfonyl)-1H-indol-1-yl)pyridin-3-yl)oxy)piperidine-1-carboxylate]"
12,50 to 250 nM,"Cc1noc(N2CCC(Oc3ccc(-n4ccc5cc(S(C)(=O)=O)ccc54)nc3)CC2)n1 [Example-92, 3-Methyl-5-(4-((6-(5-(methylsulfonyl)-1H-indol-1-yl)pyridin-3-yl)oxy)piperidin-1-yl)-1,2,4-oxadiazole]"
13,250 to 1000 nM,"CC(C)(C)OC(=O)N1CCC(Oc2ccc(-n3ccc4cc(CO)ccc43)nc2)CC1 [Example-94, tert-Butyl-4-((6-(5-(hydroxymethyl)-1H-indol-1-yl)pyridin-3-yl)oxy)piperidine-1-carboxylate]"
14,< 50 nM,"CCc1cnc(N2CCC(Oc3ccc(-n4ccc5cc(CNC(=O)C(C)C)ccc54)nc3)CC2)nc1 [Example-98, N-((1-(5-((1-(5-Ethylpyrimidin-2-yl)piperidin-4-yl)oxy)pyridin-2-yl)-1H-indol-5-yl)methyl)isobutyramide]"
15,250 to 1000 nM,"CC(C)c1noc(-c2ccc3c(ccn3-c3ccc(OC4CCN(C(=O)OC(C)(C)C)CC4)cn3)c2)n1 [Example-99, tert-Butyl-4-((6-(5-(3-isopropyl-1,2,4-oxadiazol-5-yl)-1H-indol-1-yl)pyridin-3-yl)oxy)piperidine-1-carboxylate]"
16,250 to 1000 nM,"CCc1cnc(N2CCC(Oc3ccc(-n4ccc5cc(-c6nc(C(C)C)no6)ccc54)nc3)CC2)nc1 [Example-100, 5-(1-(5-((1-(5-Ethylpyrimidin-2-yl)piperidin-4-yl)oxy)pyridin-2-yl)-1H-indol-5-yl)-3-isopropyl-1,2,4-oxadiazole]"
17,50 to 250 nM,"CCc1cnc(N2CCC(Oc3ccc(-n4ccc5cc(-c6nc(C)no6)ccc54)nc3)CC2)nc1 [Example-103, 5-(1-(5-((1-(5-Ethylpyrimidin-2-yl)piperidin-4-yl)oxy)pyridin-2-yl)-1H-indol-5-yl)-3-methyl-1,2,4-oxadiazole]"
18,250 to 1000 nM,"CCOC(=O)N1CCC(OCc2ccc(-n3ccc4cc(S(C)(=O)=O)ccc43)nc2)CC1 [Example-107, Ethyl 4-((6-(5-(methylsulfonyl)-1H-indol-1-yl)pyridin-3-yl)methoxy) piperidine-1-carboxylate]"
19,50 to 250 nM,"CC(C)OC(=O)N1CCC(OCc2ccc(-n3ccc4cc(S(C)(=O)=O)ccc43)nc2)CC1 [Example-108, Isopropyl 4-((6-(5-(methylsulfonyl)-1H-indol-1-yl)pyridin-3-yl)methoxy)piperidine-1-carboxylate]"
20,250 to 1000 nM,"Cc1noc(N2CCC(OCc3ccc(-n4ccc5cc(S(C)(=O)=O)ccc54)nc3)CC2)n1 [Example-112, 3-Methyl-5-(4-((6-(5-(methylsulfonyl)-1H-indol-1-yl)pyridin-3-yl)methoxy)piperidin-1-yl)-1,2,4-oxadiazole]"
21,250 to 1000 nM,"CCc1cnc(N2CCC(OCc3ccc(N4CCc5cc(S(C)(=O)=O)ccc54)nc3)CC2)nc1 [Example-113, 1-(5-(((1-(5-Ethylpyrimidin-2-yl)piperidin-4-yl)oxy)methyl)pyridin-2-yl)-5-(methylsulfonyl)indoline]"
22,< 50 nM,"CCc1cnc(N2CCC(Oc3ccc(-n4ccc5cc(NC(=O)C(C)(C)C)ccc54)nc3)CC2)nc1 [Example-118, N-(1-(5-((1-(5-Ethylpyrimidin-2-yl)piperidin-4-yl)oxy)pyridin-2-yl)-1H-indol-5-yl)pivalamide]"
23,50 to 250 nM,"CCc1cnc(N2CCC(Nc3ccc(-n4ccc5cc(S(C)(=O)=O)ccc54)nc3)CC2)nc1 [Example-119, N-(1-(5-Ethylpyrimidin-2-yl)piperidin-4-yl)-6-(5-(methylsulfonyl)-1H-indol-1-yl)pyridin-3-amine]"
24,< 50 nM,"CC(C)c1noc(N2CCC(Nc3ccc(-n4ccc5cc(S(C)(=O)=O)ccc54)nc3)CC2)n1 [Example-120, N-(1-(3-Isopropyl-1,2,4-oxadiazol-5-yl)piperidin-4-yl)-6-(5-(methylsulfonyl)-1H-indol-1-yl)pyridin-3-amine]"
25,< 50 nM,"CCc1cnc(N2CCC(Oc3ccc(-n4ccc5cc(NC(=O)C(C)C)ccc54)nc3)CC2)nc1 [Example-123, N-(1-(5-((1-(5-Ethylpyrimidin-2-yl)piperidin-4-yl)oxy)pyridin-2-yl)-1H-indol-5-yl)isobutyramide]"
26,< 50 nM and 50 to 250 nM,"CC(C)OC(=O)N1CCC(COc2ccc(-n3ccc4cc(NC(=O)C(C)C)ccc43)nc2)CC1 [Example-126, Isopropyl 4-(((6-(5-isobutyramido-1H-indol-1-yl)pyridin-3-yl)oxy)methyl)piperidine-1-carboxylate]"
